From patent publication US11364220B2, “Compounds and methods for inhibiting CPY26 enzymes” (Queen's University at Kingston, priority 2016, dated 2022)
Like-named read-outs stand apart in the source and are kept apart here.

Key:
CYP26A1 = CYP26A1 (Homo sapiens (Human), UniProt O43174); test: Cell-based inhibitor assay, [H]-RA metabolism in CYP26A1 stably transfected HeLa cells; conditions: for IC50: CYP26A1 transfected HeLa cells, 3 hours at 37° C., inhibition of all trans-RA metabolism, read-out: IC50 26A1; for inhibition of CYP26A1-mediated RA metabolism compared with ketoconazole (in words): see IC50 values in Table 2
Sequence of CYP26A1 (O43174 whole entry, species assumed): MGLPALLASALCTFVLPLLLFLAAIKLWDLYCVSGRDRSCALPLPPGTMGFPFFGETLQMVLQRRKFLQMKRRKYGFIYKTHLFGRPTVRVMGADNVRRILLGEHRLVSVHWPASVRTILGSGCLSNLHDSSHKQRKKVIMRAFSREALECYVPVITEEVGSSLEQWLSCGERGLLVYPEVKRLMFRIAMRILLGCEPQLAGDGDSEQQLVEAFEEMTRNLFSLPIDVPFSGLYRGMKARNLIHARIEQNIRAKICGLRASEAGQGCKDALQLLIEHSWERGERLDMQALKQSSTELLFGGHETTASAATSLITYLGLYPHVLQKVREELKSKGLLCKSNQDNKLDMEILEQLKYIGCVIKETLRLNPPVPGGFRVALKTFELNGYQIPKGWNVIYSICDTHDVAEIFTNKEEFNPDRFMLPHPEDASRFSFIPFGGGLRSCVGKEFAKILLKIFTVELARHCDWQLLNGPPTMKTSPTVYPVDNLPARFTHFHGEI
Description: (§1) CYP26A1 or CYP26B1 stably transfected HeLa cells were maintained in Minimum Essential Medium (MEM) containing 10% fetal bovine serum (FBS) and 100 μg/mL hygromycin. Exponentially growing cells were harvested by incubation in trypsin. Cells were then collected and re-plated in 48-well culture plates at 5×10^5 cells in 0.2 mL of culture medium containing 0.05 μCi [H]-RA in the presence or absence of increasing concentrations of a test compound. The test compounds were diluted in dimethyl sulfoxide (DMSO) and then added in duplicate to wells at 0.01, 0.1, 1, 10 and 100 μM final concentration. […] Cells were incubated for 3 hours at 37° C. Retinoids were then extracted using the procedure of Bligh, et al., (1959), Canadian Journal of Biochemistry 37, 911-917, which was modified by using dichloromethane instead of chloroform. Each sample's water soluble radioactivity level was quantified using a β-scintillation counter (using Ecolume scintillation fluid, available from MP Biomedicals of Solon, Ohio, USA).

CYP26B1 = CYP26B1 (Homo sapiens (Human), UniProt Q9NR63); test: Cell-based inhibitor assay, [H]-RA metabolism in CYP26B1 stably transfected HeLa cells; conditions: for IC50: read-out: IC50 26B1
Sequence of CYP26B1 (Q9NR63 whole entry, species assumed): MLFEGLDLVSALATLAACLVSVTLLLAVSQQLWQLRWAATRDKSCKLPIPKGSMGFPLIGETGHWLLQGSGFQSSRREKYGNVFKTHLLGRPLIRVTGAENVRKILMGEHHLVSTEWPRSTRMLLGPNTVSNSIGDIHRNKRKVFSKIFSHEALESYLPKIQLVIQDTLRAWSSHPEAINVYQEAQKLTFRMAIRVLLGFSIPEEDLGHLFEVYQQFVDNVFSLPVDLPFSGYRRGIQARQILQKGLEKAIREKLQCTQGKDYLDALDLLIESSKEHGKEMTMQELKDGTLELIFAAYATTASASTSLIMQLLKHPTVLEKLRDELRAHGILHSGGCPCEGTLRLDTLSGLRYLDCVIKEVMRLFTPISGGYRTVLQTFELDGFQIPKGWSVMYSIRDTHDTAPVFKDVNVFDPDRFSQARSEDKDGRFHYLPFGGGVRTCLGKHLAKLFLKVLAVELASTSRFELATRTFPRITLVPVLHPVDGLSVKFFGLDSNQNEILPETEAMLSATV
Description: as §1

[1] = test system: RA sensitive reporter construct pCYP26A1-luc in MCF-7 cells; test: Retinoid activity assay, RA sensitive pCYP26A1-luc reporter in MCF-7 cells; format: cell-based; conditions: 24 hours, firefly relative to Renilla luciferase
Text: This retinoid activity assay measures the ability of test compounds to induce expression of a transiently transfected RA sensitive reporter construct. In this assay, MCF-7 cells are transfected with a construct comprising an upstream promoter of the CYP26A1 gene containing 2 RA response elements driving expression of firefly luciferase (pCYP26A1-luc). Since CYP26A1 is highly inducible by RA in these cells, this construct serves as a sensitive reporter of retinoid-like transcriptional activity.
MCF-7 cells were maintained in RPMI-1640 medium containing 10% FBS. Exponentially growing cells were harvested by incubation in trypsin. Cells were then collected and plated in 24-well plates at 50,000 cells/well. Once cells reached 80-90% confluence (e.g., the next day), cells were transfected with two plasmids. The first plasmid was CYP26A1-luc construct (375 ng). The second plasmid was a control plasmid comprising the Renilla luciferase gene driven by constitutive thymidine kinase promoter (pRL-tk) (25 ng). Transfection was performed using FuGene 6 transfection reagent (Promega) with a 1:3 ratio of DNA:FuGene. 24 hours after transfection, cells were treated with test compounds diluted in DMSO in triplicate at 0.1, 1 and 10 μM final concentrations. As a positive control for reporter activation, cells were also treated with RA diluted in DMSO at the same concentrations listed above. DMSO treatment alone served as a negative control. After 24 hours of treatment, cells were harvested in passive lysis buffer (Promega) and luciferase activity in cell lysates were read using a luminometer. Data are expressed as the activity of firefly luciferase relative to Renilla luciferase (see Table 3). For CYP26A1 inhibitor compounds, no activation of the reporter was detected, while the related retinoid-like compound induces luciferase expression.

[2] = CYP26B1 transfected HeLa cells, 3 hours at 37° C., inhibition of all trans-RA metabolism

SMILES	IC50 (CYP26A1) [µM]	IC50 (CYP26B1; [2]) [µM]	IC50 (CYP26B1) [µM]	Luciferase Activity RLU Avg ([1]; 0.1 μM) [RLU]	Luciferase Activity RLU Avg ([1]; 1 μM) [RLU]	Luciferase Activity RLU Avg ([1]; 10 μM) [RLU]	inhibitory activity towards CYP26A1 (in words) (CYP26A1)	inhibition of CYP26A1-mediated RA metabolism compared with ketoconazole (in words) (CYP26A1)	inhibition of CYP26B1 enzyme (in words) (CYP26B1)
CC1(C)CCC(C)(C)c2cc(C(=O)Nc3ccc(CC(=O)O)cc3)ccc21 [Cmpd 01]	5.66	8.81		0.0041	0.0053	0.0077			
Cc1cc2c(cc1C(=O)Nc1ccc(CC(=O)O)cc1)C(C)(C)CCC2(C)C [Cmpd 02]	0.83	2.06		0.004	0.0042	0.0066	selective inhibitory activity towards CYP26A1	comparable to or better than ketoconazole	None of the above compounds inhibited the CYP26B1 enzyme
CN(C(=O)c1ccc2c(c1)C(C)(C)CCC2(C)C)c1ccc(CC(=O)O)cc1 [Cmpd 03]	> 100	65.4		0.0041	0.0039	0.005			
C=C(Cc1ccc(NS(=O)(=O)c2ccc3c(c2)C(C)(C)CCC3(C)C)cc1)OC [Cmpd 04A]	14								
C=C(Cc1ccc(NS(=O)(=O)c2cc3c(cc2Br)C(C)(C)CCC3(C)C)cc1)OC [Cmpd 04B]	8.24								
CC1(C)CCC(C)(C)c2cc(S(=O)(=O)Nc3ccc(CC(=O)O)cc3)ccc21 [Cmpd 04]	1.14	18.9		0.0046	0.0035		selective inhibitory activity towards CYP26A1	comparable to or better than ketoconazole	None of the above compounds inhibited the CYP26B1 enzyme
CC1(C)CCOc2ccc(C(=O)Nc3ccc(CC(=O)O)cc3)cc21 [Cmpd 05]	39.7	11.5							
CC(C)c1cc2c(cc1C(=O)Nc1ccc(CC(=O)O)cc1)C(C)(C)CCC2(C)C [Cmpd 06]	1.29	42.3		0.0021	0.002	0.0018	selective inhibitory activity towards CYP26A1	comparable to or better than ketoconazole	None of the above compounds inhibited the CYP26B1 enzyme
Cc1cc2c(cc1S(=O)(=O)Nc1ccc(CC(=O)O)cc1)C(C)(C)CCC2(C)C [Cmpd 07]				0.0016	0.0019	0.0011			
CC1(C)CCC(C)(C)c2cc(NC(=O)c3ccc(CC(=O)O)cc3)ccc21 [Cmpd 08]	3.17	19.2		0.0025	0.0019	0.0028			
C=C(Cc1ccc(NS(=O)(=O)c2ccc3c(c2)C(C)(C)CCC3(C)C)cc1F)OC [Cmpd 09A]	80.5								
CC1(C)CCC(C)(C)c2cc(S(=O)(=O)Nc3ccc(CC(=O)O)c(F)c3)ccc21 [Cmpd 09]	2.2	14.2		0.0018	0.0017	0.0012			
Cc1cc2c(c(C)c1C(=O)Nc1ccc(CC(=O)O)cc1)C(C)(C)CCC2(C)C [Cmpd 10]	8.23	0.55		0.073	0.076	0.084			

Further lines, with some results ahead:

IC50 (CYP26A1) [µM]	IC50 (CYP26B1; [2]) [µM]	IC50 (CYP26B1) [µM]	SMILES	Luciferase Activity RLU Avg ([1]; 0.1 μM) [RLU]	Luciferase Activity RLU Avg ([1]; 1 μM) [RLU]	Luciferase Activity RLU Avg ([1]; 10 μM) [RLU]	inhibitory activity towards CYP26A1 (in words) (CYP26A1)	inhibition of CYP26A1-mediated RA metabolism compared with ketoconazole (in words) (CYP26A1)	inhibition of CYP26B1 enzyme (in words) (CYP26B1)
20	> 1000		CC(C)c1cc2c(cc1S(=O)(=O)Nc1ccc(CC(=O)O)cc1)C(C)(C)CCC2(C)C [Cmpd 11]	0.064	0.062	0.044			
6.2	> 100		Cc1cc2c(cc1S(=O)(=O)Nc1ccc(C3(C(=O)O)CC3)cc1)C(C)(C)CCC2(C)C [Cmpd 13]	0.113	0.07	0.04			
28.4	> 100		Cc1cc2c(cc1S(=O)(=O)Nc1ccc(C(=O)O)cc1)C(C)(C)CCC2(C)C [Cmpd 14]	0.111	0.125	0.134			
1.77	11.9		Cc1cc2c(cc1C(=O)Nc1ccc(C(C)(C)C(=O)O)cc1)C(C)(C)CCC2(C)C [Cmpd 16]	0.166	0.183	0.155	selective inhibitory activity towards CYP26A1	comparable to or better than ketoconazole	None of the above compounds inhibited the CYP26B1 enzyme
38.7	0.29		CCC(CC)(C(=O)O)c1ccc(NS(=O)(=O)c2ccc3c(c2)C(C)(C)CCC3(C)C)cc1 [Cmpd 17]	0.023	0.026	0.038			
> 1000	9.07		CCC(CC)(C(=O)O)c1ccc(NS(=O)(=O)c2cc3c(cc2C)C(C)(C)CCC3(C)C)cc1 [Cmpd 18]	0.0683	0.0597	0.05			
0.741	> 100		Cc1cc2c(cc1S(=O)(=O)Nc1ccc(C(C(=O)O)C(C)C)cc1)C(C)(C)CCC2(C)C (stereo not drawn) [Cmpd 19]	0.0244	0.019	0.0076	selective inhibitory activity towards CYP26A1	comparable to or better than ketoconazole	None of the above compounds inhibited the CYP26B1 enzyme
1.9		21.8	Cc1cc(S(=O)(=O)Nc2ccc(CC(=O)O)cc2)cc2c1OC(C)(C)CC2(C)C [Cmpd 21]				selective inhibitory activity towards CYP26A1	comparable to or better than ketoconazole	None of the above compounds inhibited the CYP26B1 enzyme
